Results on 20 compounds are retold here after patent publication EP1763350B1, “NICOTINAMIDE DERIVATIVES AND THEIR USE AS THERAPEUTIC AGENTS” (Xenon Pharmaceuticals Inc., priority 2004, dated 2006).

Structures are written as SMILES. Several values for one entry are separate records, joined by “and”; a condition that tells them apart may be missing. Equal values may be shown once.

For the experiment, the target named is T1, SCD (Mus musculus, UniProt P13516).
T1 construct: from tissue; host or cells: mouse liver microsomes (induced for SCD1 expression)
T1 sequence (P13516 1-355): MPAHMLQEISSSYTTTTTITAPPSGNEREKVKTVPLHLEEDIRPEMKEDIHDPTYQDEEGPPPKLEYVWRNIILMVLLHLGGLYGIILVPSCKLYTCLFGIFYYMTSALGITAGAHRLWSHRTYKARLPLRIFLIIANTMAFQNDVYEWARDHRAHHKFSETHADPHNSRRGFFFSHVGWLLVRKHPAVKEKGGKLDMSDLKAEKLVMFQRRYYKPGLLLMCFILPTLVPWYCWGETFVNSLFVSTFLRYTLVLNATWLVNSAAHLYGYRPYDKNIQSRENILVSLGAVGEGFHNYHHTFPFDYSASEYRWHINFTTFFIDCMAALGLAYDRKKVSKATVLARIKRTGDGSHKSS
As to the kind of experiment: SCD microsomal assay (tritiated stearoyl-CoA, release of labeled water), mouse liver microsomes. Type of experiment: biochemical. The settings on record: % remaining SCD activity at 10 µM of test compound, 100 µg, preincubation 15 minutes, desaturation period 15 minutes at ambient temperature. From the text: The identification of compounds of the invention as SCD inhibitors was readily accomplished using the SCD enzyme and microsomal assay procedure described in Brownlie et al, supra.
The identification of compounds of the invention as SCD inhibitors was readily accomplished using the SCD enzymes and microsomal assay procedure described in Brownlie et al, PCT published patent application, WO 01/62954. Briefly, mouse or human liver microsomes (induced for SCD1 expression and containing cytochrome b5 and cytochrome b5 reductase) and NADH are suspended in buffer with a compound of the invention, and reaction is initiated by addition of 0.025 mM tritiated stearoyl-CoA. This ligand is tritiated at the C9 and C10 position only. The reaction is allowed to proceed for between 5 and 20 minutes at ambient temperature, whereupon it is halted by addition of acid. Activated charcoal is then added, mixed, and centrifuged to separate labeled substrate from labeled water. An aliquot of supernatant is than tested for radioactivity using liquid scintillation counting. This is taken as a measure of delta-9 desaturase activity.
Compounds were tested in mouse liver microsomes, 100 µg, preincubation with the test compound for 15 minutes at ambient temperature, a desaturation period for 15 minutes at ambient temperature, utilizing the large volume bench-top tube method. TABLE 3. SCD INHIBITORY ACTIVITY FOR SELECTED COMPOUNDS.
Background: Liver microsomes are vesicles of endoplasmic reticulum, rich in cytochrome P450 enzymes.
`COCCCNC(=O)c1ccc(N2CCN(C(=O)c3ccccc3Br)CC2)nc1` [6-[4-(2-Bromo-benzoyl)-piperazin-1-yl]-N-(3-methoxy-propyl)-nicotinamide] showed an activity at 10 µM of 1.2%.
`CCCC(C)NC(=O)c1ccc(N2CCN(C(=O)CCC3CCCCC3)CC2)nc1` (centres unmarked) [6-[4-(3-Cyclohexyl-propionyl)-piperazin-1-yl]-N-(1-methylbutyl)-nicotinamide] yielded an activity at 10 µM of 2.1%.
Still for that read-out and setting: the result for `CCSCCNC(=O)c1ccc(N2CCN(C(=O)CCC3CCCCC3)CC2)nc1` [6-[4-(3-Cyclohexyl-propionyl)-piperazin-1-yl]-N-(2-ethylsulfanyl-ethyl)-nicotinamide] reads 1.4%; that for `CC(C)CCNC(=O)c1ccc(N2CCN(C(=O)CCC3CCCCC3)CC2)nc1` [6-[4-(3-Cyclohexyl-propionyl)-piperazin-1-yl]-N-(3-methylbutyl)-nicotinamide], 1.3%.
As for `CC(C)CC(C)NC(=O)c1ccc(N2CCN(C(=O)c3ccccc3C(F)(F)F)CC2)nc1` (centres unmarked) [N-(1,3-Dimethylbutyl)-6-[4-(2-trifluoromethyl-benzoyl)-piperazin-1-yl]-nicotinamide], the activity at 10 µM was 1.8%.
As for `CCCCCNC(=O)c1ccc(N2CCN(C(=O)Cc3ccc4ccccc4c3)CC2)nc1` [6-[4-(2-Naphthalen-2-yl-acetyl)-piperazin-1-yl]-N-pentylnicotinamide], the activity at 10 µM came to 0.7%.
Regarding `Cc1ccccc1CC(=O)N1CCN(c2ccc(C(=O)NCCC(C)C)cn2)CC1` [N-(3-Methyl-butyl)-6-[4-(2-o-tolyl-acetyl)-piperazin-1-yl]-nicotinamide], the activity at 10 µM was 3.2%.
On to `O=C(NCCCc1ccccc1)c1ccc(N2CCN(C(=O)c3ccccc3C(F)(F)F)CC2)nc1` [N-(3-Phenyl-propyl)-6-[4-(2-trifluoromethyl-benzoyl)-piperazin-1-yl]-nicotinamide], for which the “% Activity 10 µM” value was 3.9% and 1.3%.
The compound `CCC(C(=O)N1CCN(c2ccc(C(=O)NCCCc3ccccc3)cn2)CC1)c1ccccc1` (centres unmarked) [6-[4-(2-Phenyl-butyryl)-piperazin-1-yl]-N-(3-phenyl-propyl)-nicotinamide] returned an activity at 10 µM of 3.6%.
For `COc1ccc(Br)c(C(=O)N2CCN(c3ccc(C(=O)NCCc4ccccc4)cn3)CC2)c1` [6-[4-(2-Bromo-5-methoxy-benzoyl)-piperazin-1-yl]-N-phenethylnicotinamide], the activity at 10 µM came to 1.1%.
Compound `CCCCCNC(=O)c1ccc(N2CCN(C(=O)c3ccc(Cl)cc3Cl)CC2)nc1` [6-[4-(2,4-Dichloro-benzoyl)-piperazin-1-yl]-N-pentyl-nicotinamide] had an activity at 10 µM of 1.2%.
In the case of `CCSCCNC(=O)c1ccc(N2CCN(C(=O)Cc3ccc(C)cc3)CC2)nc1` [N-(2-Ethylsulfanyl-ethyl)-6-[4-(2-p-tolylacetyl)-piperazin-1-yl]-nicotinamide], the activity at 10 µM was 1.8%.
In turn, `CCOCCCNC(=O)c1ccc(N2CCN(C(=O)c3ccccc3Br)CC2)nc1` [6-[4-(2-Bromo-benzoyl)-piperazin-1-yl]-N-(3-ethoxy-propyl)-nicotinamide] showed an activity at 10 µM of 1%.
On the same count and under the same terms, the value for `CC(CCc1ccccc1)NC(=O)c1ccc(N2CCN(C(=O)c3ccc(Cl)cc3Cl)CC2)nc1` (centres unmarked) [6-[4-(2,4-Dichloro-benzoyl)-piperazin-1-yl]-N-(1-methyl-3-phenyl-propyl)-nicotinamide] was 2.7%; that for `CCSCCNC(=O)c1ccc(N2CCN(C(=O)c3cc(OC)ccc3Br)CC2)nc1` [6-[4-(2-Bromo-5-methoxy-benzoyl)-piperazin-1-yl]-N-(2-ethylsulfanylethyl)-nicotinamide] was 1.4%; that for `CCCCNC(=O)c1ccc(N2CCN(C(=O)C(CC)CC)CC2)nc1` [N-Butyl-6-[4-(2-ethylbutyryl)-piperazin-1-yl]-nicotinamide] was 2%.
On the same count and under the same terms, the result for `Cc1ccsc1C(=O)N1CCN(c2ccc(C(=O)NC(C)CCc3ccccc3)cn2)CC1` (centres unmarked) [N-(1-Methyl-3-phenyl-propyl)-6-[4-(3-methyl-thiophene-2-carbonyl)-piperazin-1-yl]-nicotinamide] reads 3.4%.
Regarding `CCCCOCCCNC(=O)c1ccc(N2CCN(C(=O)c3ccccc3Br)CC2)nc1` [6-[4-(2-Bromo-benzoyl)-piperazin-1-yl]-N-(3-butoxy-propyl)-nicotinamide], the activity at 10 µM is 0.8%.
The same measure, in the same setting: the result for `CCC(CC)C(=O)N1CCN(c2ccc(C(=O)NCCC(C)C)cn2)CC1` [6-[4-(2-Ethylbutyryl)-piperazin-1-yl]-N-(3-methylbutyl)-nicotinamide] reads 1.7%.
In the case of `CCCCOCCCNC(=O)c1ccc(N2CCN(C(=O)c3ccc(C)cc3C)CC2)nc1` [N-(3-Butoxy-propyl)-6-[4-(2,4-dimethylbenzoyl)-piperazin-1-yl]-nicotinamide], the activity at 10 µM worked out at 0.7%.
